In article PMC8402619 (Viruses, 2021):

Key:
Type in all cases: in vitro ADME
CYP1A2 = target: T1, CYP1A2 (Homo sapiens, UniProt P05177); assay: Reversible CYP inhibition in pooled human liver microsomes
T1 sequence (P05177 1-516): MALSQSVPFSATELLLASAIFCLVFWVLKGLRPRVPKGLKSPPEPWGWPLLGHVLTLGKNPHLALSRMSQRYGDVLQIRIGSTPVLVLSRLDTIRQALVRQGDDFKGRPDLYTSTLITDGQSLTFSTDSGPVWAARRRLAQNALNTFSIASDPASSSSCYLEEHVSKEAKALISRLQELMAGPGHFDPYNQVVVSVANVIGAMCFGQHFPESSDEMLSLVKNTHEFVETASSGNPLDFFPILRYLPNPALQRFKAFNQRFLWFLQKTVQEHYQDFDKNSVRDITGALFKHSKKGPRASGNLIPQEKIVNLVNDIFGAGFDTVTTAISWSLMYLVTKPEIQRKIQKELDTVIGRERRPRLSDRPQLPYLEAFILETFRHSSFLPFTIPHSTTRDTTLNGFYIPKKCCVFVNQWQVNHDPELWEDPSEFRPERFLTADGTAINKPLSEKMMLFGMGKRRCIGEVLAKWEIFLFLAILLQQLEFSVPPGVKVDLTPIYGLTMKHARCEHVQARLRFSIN

MATE2K = target: T2, MATE2K (Homo sapiens, UniProt Q86VL8); assay: Inhibition of transporter-mediated probe uptake in MDCKII-MATE2K cells
T2 construct: expressed in transfected cells; host or cells: MDCKII

CYP2C9 = CYP2C9 (Homo sapiens, UniProt P11712); assay: Time-dependent CYP inhibition in pooled human liver microsomes
[1] = Plasma protein binding by equilibrium dialysis, monkey plasma; settings: pH 7.4
CYP2B6 = target: T3, CYP2B6 (Homo sapiens, UniProt P20813); assay: Reversible CYP inhibition in pooled human liver microsomes
T3 sequence (P20813 1-491): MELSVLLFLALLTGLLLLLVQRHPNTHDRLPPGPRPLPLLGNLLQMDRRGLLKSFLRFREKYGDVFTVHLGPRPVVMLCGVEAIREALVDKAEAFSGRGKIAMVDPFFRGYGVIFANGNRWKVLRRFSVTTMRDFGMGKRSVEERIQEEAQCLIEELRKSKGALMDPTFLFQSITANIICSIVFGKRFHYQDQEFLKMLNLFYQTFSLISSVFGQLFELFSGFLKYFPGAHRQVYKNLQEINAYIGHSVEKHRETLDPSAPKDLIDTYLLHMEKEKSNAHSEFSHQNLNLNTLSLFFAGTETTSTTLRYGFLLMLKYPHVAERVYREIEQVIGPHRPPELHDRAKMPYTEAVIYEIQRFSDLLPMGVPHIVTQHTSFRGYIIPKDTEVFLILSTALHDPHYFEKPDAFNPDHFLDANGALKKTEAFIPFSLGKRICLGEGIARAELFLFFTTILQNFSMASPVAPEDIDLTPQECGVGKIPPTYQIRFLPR

OAT3 = target: T4, OAT3 (Homo sapiens, UniProt Q8TCC7); assay: Inhibition of transporter-mediated probe uptake in MDCKII-OAT3 cells
T4 construct: expressed in transfected cells; host or cells: MDCKII
T4 sequence (Q8TCC7 1-542): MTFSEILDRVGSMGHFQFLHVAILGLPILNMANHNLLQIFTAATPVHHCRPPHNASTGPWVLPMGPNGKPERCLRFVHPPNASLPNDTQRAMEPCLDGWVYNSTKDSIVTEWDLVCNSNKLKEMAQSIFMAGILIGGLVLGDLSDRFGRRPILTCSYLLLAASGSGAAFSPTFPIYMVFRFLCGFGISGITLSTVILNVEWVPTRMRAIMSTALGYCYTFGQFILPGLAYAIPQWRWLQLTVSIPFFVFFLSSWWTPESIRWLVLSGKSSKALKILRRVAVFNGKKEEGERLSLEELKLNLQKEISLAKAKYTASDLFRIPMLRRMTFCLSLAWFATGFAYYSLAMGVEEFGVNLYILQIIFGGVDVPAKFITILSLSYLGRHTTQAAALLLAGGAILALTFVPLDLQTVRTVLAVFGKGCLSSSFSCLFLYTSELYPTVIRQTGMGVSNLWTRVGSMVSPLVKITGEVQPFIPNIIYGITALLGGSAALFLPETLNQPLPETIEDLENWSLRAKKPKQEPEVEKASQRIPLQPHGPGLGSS

[2] = Plasma protein binding by equilibrium dialysis, mouse plasma; settings: pH 7.4
[3] = target: T5, recombinant human adenosine deaminase (ADA) (Homo sapiens, UniProt P00813); assay: Metabolism and enzyme kinetics with recombinant human ADA
T5 construct: purchased Novus Biologicals, LLC

MATE1 = target: T6, MATE1 (Homo sapiens, UniProt Q96FL8); assay: Islatravir uptake as substrate, CHO-K1 vs CHO-K1-MATE1 cells
T6 construct: expressed in transfected cells; host or cells: CHO-K1
T6 sequence (Q96FL8 1-570): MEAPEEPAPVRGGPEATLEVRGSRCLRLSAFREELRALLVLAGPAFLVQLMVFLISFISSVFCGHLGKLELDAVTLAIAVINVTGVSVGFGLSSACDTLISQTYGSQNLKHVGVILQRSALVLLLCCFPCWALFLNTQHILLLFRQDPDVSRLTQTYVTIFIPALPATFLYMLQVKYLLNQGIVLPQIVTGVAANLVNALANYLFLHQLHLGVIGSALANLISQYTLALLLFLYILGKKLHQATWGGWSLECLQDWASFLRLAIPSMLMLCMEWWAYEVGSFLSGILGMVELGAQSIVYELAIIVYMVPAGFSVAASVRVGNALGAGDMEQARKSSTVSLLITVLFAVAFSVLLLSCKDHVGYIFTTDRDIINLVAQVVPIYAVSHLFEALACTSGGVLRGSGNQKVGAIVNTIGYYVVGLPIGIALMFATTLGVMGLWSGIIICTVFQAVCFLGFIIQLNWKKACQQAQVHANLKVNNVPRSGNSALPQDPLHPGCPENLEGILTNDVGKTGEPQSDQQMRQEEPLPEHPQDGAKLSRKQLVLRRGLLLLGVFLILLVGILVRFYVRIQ

T2 sequence (Q86VL8 1-566 isoform Q86VL8-3): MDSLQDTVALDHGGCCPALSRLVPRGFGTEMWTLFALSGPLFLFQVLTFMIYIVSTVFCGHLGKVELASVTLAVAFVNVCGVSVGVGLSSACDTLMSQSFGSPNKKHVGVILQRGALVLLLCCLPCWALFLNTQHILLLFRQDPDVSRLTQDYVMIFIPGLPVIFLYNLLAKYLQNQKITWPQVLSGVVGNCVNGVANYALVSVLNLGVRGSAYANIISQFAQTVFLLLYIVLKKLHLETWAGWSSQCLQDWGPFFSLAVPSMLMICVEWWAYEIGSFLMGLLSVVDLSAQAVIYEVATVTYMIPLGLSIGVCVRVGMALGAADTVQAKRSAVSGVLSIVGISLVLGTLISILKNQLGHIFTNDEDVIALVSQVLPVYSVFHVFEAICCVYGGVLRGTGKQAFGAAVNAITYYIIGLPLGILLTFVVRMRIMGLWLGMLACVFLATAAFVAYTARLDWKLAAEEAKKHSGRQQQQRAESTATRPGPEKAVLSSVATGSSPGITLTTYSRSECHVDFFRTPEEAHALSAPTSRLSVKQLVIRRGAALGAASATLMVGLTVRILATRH
Sequence of CYP2C9 (P11712 whole entry): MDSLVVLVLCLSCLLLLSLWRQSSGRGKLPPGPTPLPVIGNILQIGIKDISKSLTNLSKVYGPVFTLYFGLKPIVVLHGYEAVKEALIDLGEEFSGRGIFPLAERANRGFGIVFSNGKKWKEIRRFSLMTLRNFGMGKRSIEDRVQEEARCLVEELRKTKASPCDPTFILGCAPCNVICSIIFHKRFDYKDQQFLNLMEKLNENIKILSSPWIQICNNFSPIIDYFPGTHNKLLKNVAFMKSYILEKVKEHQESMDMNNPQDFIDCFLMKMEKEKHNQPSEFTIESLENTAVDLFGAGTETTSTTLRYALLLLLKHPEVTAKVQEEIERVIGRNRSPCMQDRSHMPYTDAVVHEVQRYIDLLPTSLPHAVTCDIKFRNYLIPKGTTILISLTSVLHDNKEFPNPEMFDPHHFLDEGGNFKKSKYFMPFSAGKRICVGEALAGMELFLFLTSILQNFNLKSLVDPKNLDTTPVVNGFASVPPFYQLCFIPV
T5 sequence (P00813 whole entry): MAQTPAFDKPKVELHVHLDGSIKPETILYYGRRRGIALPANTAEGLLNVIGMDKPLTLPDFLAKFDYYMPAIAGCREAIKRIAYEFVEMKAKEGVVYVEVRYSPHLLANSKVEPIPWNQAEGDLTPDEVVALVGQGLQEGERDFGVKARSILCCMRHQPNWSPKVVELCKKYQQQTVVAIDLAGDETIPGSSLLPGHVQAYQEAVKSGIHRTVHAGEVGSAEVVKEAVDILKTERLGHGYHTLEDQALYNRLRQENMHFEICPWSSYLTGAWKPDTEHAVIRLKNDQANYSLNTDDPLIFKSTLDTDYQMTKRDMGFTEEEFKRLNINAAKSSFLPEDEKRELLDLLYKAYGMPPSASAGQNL

C#C[C@]1(CO)O[C@@H](n2cnc3c(N)nc(F)nc32)C[C@@H]1O [Islatravir, 4′-Ethynyl-2-fluoro-2′-deoxyadenosine]
DDI Potential (CYP1A2; CYP1A2 reversible inhibition, FDA, EMA, PMDA guidance): Low risk | Maximum Unbound Plasma Concentration (Imax,u) to Ki,u Ratio (CYP1A2; CYP1A2 reversible, 60 mg, Cmax 1.01 µM, fu,p 0.96, Ki,u = IC50/2): <0.019 µM | IC50 (CYP1A2; reversible, CYP1A2 phenacetin O-deethylation, read-out: Islatravir IC50): > 100 µM | DDI Potential (MATE2K; MATE2K inhibition, FDA, EMA, PMDA guidance): Low risk | IC50 (MATE2K; MATE2K, metformin uptake, read-out: Islatravir IC50): > 75 µM | Maximum Unbound Plasma Concentration (Imax,u) to IC50 Ratio (MATE2K; MATE2K, 60 mg, Cmax 1.01 µM, fu,p 0.96): <0.013 µM | time-dependent inhibition (CYP2C9; CYP2C9, pre-incubation of 10 and 50 µM for up to 30 min): no time-dependent inhibition | DDI Potential (CYP2C9; CYP2C9 time dependent inhibition): Low risk ^h | IC50 (CYP2C9; time dependent, CYP2C9, read-out: Islatravir IC50): > 50 µM | fraction unbound at 24 h, 0.1 µM [1]: > 0.84 | DDI Potential (CYP2B6; CYP2B6 reversible inhibition, FDA, EMA, PMDA guidance): Low risk | Maximum Unbound Plasma Concentration (Imax,u) to Ki,u Ratio (CYP2B6; CYP2B6 reversible, 60 mg, Cmax 1.01 µM, fu,p 0.96, Ki,u = IC50/2): <0.019 µM | IC50 (CYP2B6; reversible, CYP2B6 bupropion hydroxylation, read-out: Islatravir IC50): > 100 µM | inhibition at 100 µM (OAT3; MDCKII-OAT3 cells, probe estrone sulfate, 100 µM islatravir): 31% | IC50 (OAT3; OAT3-mediated estrone sulfate uptake, read-out: Islatravir IC50): > 100 µM | Maximum Unbound Plasma Concentration (Imax,u) to IC50 Ratio (OAT3; OAT3, 60 mg, Cmax 1.01 µM, fu,p 0.96): <0.010 µM | DDI Potential (OAT3; OAT3 inhibition, FDA, EMA, PMDA guidance): Low risk | fraction unbound at 24 h, 0.1 µM [2]: > 0.84 | ADA-dependent deamination ([3]; 50 µM, 3 h, 1 unit/mL recombinant human ADA): very slow ADA-dependent deamination to M4 | Km ([3]; M4 formation, linear over 1-250 µM islatravir, read-out: Michaelis constant [Km]): > 250 µM | Islatravir Uptake Transporter-Expressing Cells (MATE1; CHO-K1-MATE1, 2 µM [14C]islatravir, 20 min, mean ± SD, n = 3): 2.94 ± 0.20 pmole/10^6 Cells | Fold-Difference (MATE1; MATE1, uptake into transporter-expressing cells to control cells, 20 min): 1.01 | Islatravir Uptake Control Cells (MATE1; MATE1 row, CHO-K1 control cells, 2 µM [14C]islatravir, 20 min, mean ± SD, n = 3): 2.90 ± 0.27 pmole/10^6 Cells | Conclusions (MATE1; MATE1 substrate assessment): Non-substrate
